Reference: patent publication US7750040B2, “Thiophene derivatives” (priority 2004, dated 2010)

Legend:
[1] = system: circulating lymphocytes; assay: Assessment of in vivo efficacy: circulating lymphocytes after oral administration; conditions: 3 h after oral administration of 30 mg/kg, normotensive male Wistar rats, compared to vehicle group; mean±SEM
Experimental: The efficacy of the compounds of Formula (I) is assessed by measuring the circulating lymphocytes after oral administration of 30 mg/kg of a compound of Formula (I) to normotensive male Wistar rats. The animals are housed in climate-controlled conditions with a 12 h-light/dark cycle, and have free access to normal rat chow and drinking water. […] Full blood is subjected to hematology using Advia Hematology system (Bayer Diagnostics, Zürich, Switzerland).
All data are presented as mean±SEM. Statistical analyses are performed by analysis of variance (ANOVA) using Statistica (StatSoft) and the Student-Newman-Keuls procedure for multiple comparisons. The null hypothesis is rejected when p<0.05.

[2] = biological target: recombinant human S1P1 receptor (Homo sapiens, UniProt P21453); assay: GTPγS assay to determine EC50 values; format: biochemical; conditions: 35S-GTPγS binding, membrane preparations of CHO cells expressing recombinant human S1P1 receptor
Sequence of recombinant human S1P1 receptor (P21453 whole entry): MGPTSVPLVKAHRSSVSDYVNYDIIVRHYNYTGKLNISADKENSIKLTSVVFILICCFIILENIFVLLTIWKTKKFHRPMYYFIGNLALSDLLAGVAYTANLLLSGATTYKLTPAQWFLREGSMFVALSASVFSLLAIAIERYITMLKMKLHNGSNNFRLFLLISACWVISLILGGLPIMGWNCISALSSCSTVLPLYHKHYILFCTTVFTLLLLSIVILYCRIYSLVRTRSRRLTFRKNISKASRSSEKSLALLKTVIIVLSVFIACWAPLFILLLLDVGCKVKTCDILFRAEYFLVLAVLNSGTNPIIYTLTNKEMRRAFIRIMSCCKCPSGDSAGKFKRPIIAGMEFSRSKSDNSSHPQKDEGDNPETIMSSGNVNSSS
Experimental: The pH was 7.4. Test compounds are dissolved and diluted in 100% DMSO and pre-incubated at room temperature for 30 min in 150 μl of the above assay buffer, in the absence of ^35S-GTPγS. After addition of 50 μl of ^35S-GTPγS, the assay is incubated for 1 h at room temperature. […] Membrane-bound ^35S-GTPγS is measured with a TopCount from Packard Biosciences.
Specific binding is determined by subtracting non-specific binding from maximal binding. Maximal binding is the amount of cpm bound to the Multiscreen plate in the presence of 10 μM of S1P. Non-specific binding is the amount of binding in the absence of an agonist in the assay.

| SMILES | EC50 [2] [nM] | Lymphocyte counts [1] [%] |
| --- | --- | --- |
| Cc1cc(CNC(=O)c2sc(C)c3c2C[C@@H]2[C@H]3C2(C)C)cc(C)c1OC[C@@H](O)CO [Example 5, (1aS,5aR)-1,1,2-trimethyl-1,1a,5,5a-tetrahydro-3-thia-cyclopropa[a]pentalene-4-carboxylic acid 4-((S)-2,3-dihydroxy-propoxy)-3,5-dimethyl-benzylamide] | 75 |  |
| Cc1cc(CCC(=O)c2sc(C)c3c2C[C@@H]2[C@H]3C2(C)C)cc(C)c1OC[C@@H](O)CO [Example 51, 3-[4-((S)-2,3-Dihydroxy-propoxy)-3,5-dimethyl-phenyl]-1-((1aS,5aR)-1,1,2-trimethyl-1,1a,5,5a-tetrahydro-3-thia-cyclopropa[a]pentalen-4-yl)-propan-1-one] |  | −44 ± 4 |
| Cc1cc(CCC(=O)c2sc(C)c3c2C[C@@H]2[C@H]3C2(C)C)cc(Cl)c1OC[C@H](O)CO [Example 71, 3-[3-Chloro-4-((R)-2,3-dihydroxy-propoxy)-5-methyl-phenyl]-1-((1aS,5aR)-1,1,2-trimethyl-1,1a,5,5a-tetrahydro-3-thia-cyclopropa[a]pentalen-4-yl)-propan-1-one] | 1 |  |
| Cc1sc(C(=O)CCc2ccc(OC[C@@H](O)CO)c(Cl)c2)c2c1[C@H]1[C@@H](C2)C1(C)C [Example 75, 3-[3-Chloro-4-((S)-2,3-dihydroxy-propoxy)-phenyl]-1-((1aS,5aR)-1,1,2-trimethyl-1,1a,5,5a-tetrahydro-3-thia-cyclopropa[a]pentalen-4-yl)-propan-1-one] |  | −57 ± 5 |
| Cc1cc(CCC(=O)c2sc(C)c3c2C[C@@H]2[C@H]3C2(C)C)ccc1OC[C@@H](O)CO [Example 86, 3-[4-((S)-2,3-Dihydroxy-propoxy)-3-methyl-phenyl]-1-((1aS,5aR)-1,1,2-trimethyl-1,1a,5,5a-tetrahydro-3-thia-cyclopropa[a]pentalen-4-yl)-propan-1-one] |  | −47 ± 4 |
| CCc1sc(C(=O)CCc2cc(C)c(OC[C@@H](O)CO)c(C)c2)c2c1[C@@H]1[C@H](C2)C1(C)C [Example 137, 3-[4-((S)-2,3-Dihydroxy-propoxy)-3,5-dimethyl-phenyl]-1-((1aR,5aS)-2-ethyl-1,1-dimethyl-1,1a,5,5a-tetrahydro-3-thia-cyclopropa[a]pentalen-4-yl)-propan-1-one] | 0.6 |  |
| CCc1sc(C(=O)CCc2cc(C)c(OCCCO)c(C)c2)c2c1[C@@H]1[C@H](C2)C1(C)C [Example 139, 1-((1aR,5aS)-2-Ethyl-1,1-dimethyl-1,1a,5,5a-tetrahydro-3-thia-cyclopropa[a]pentalen-4-yl)-3-[4-(3-hydroxy-propoxy)-3,5-dimethyl-phenyl]-propan-1-one] | 4 |  |

The next lines start with results.

| EC50 [2] [nM] | SMILES | Lymphocyte counts [1] [%] |
| --- | --- | --- |
| 164 | COc1cc(OCC(C)O)ccc1CNC(=O)c1sc(C)c2c1C[C@@H]1[C@H]2C1(C)C (mixture of isomers) [Example 24, (1aS,5aR)-1,1,2-trimethyl-1,1a,5,5a-tetrahydro-3-thia-cyclopropa[a]pentalene-4-carboxylic acid 4-((R/S)-2-hydroxy-propoxy)-2-methoxy-benzylamide] | −40 ± 4 |
| 183 | COc1cc(OC[C@@H](O)CO)ccc1CNC(=O)c1sc(C)c2c1C[C@@H]1[C@H]2C1(C)C [Example 7, (1aS,5aR)-1,1,2-Trimethyl-1,1a,5,5a-tetrahydro-3-thia-cyclopropa[a]pentalene-4-carboxylic acid 4-((S)-2,3-dihydroxy-propoxy)-2-methoxy-benzylamide] | −46 ± 3 |
| 300 | COc1cc(OCCF)ccc1CNC(=O)c1sc(C)c2c1C[C@@H]1[C@H]2C1(C)C [Example 36, (1aS,5aR)-1,1,2-Trimethyl-1,1a,5,5a-tetrahydro-3-thia-cyclopropa[a]pentalene-4-carboxylic acid 4-(2-fluoro-ethoxy)-2-methoxy-benzylamide] |  |
| 16 | COc1ccccc1CCC(=O)c1sc(C)c2c1C[C@@H]1[C@H]2C1(C)C [Example 48, 3-(2-methoxy-phenyl)-1-((1aS,5aR)-1,1,2-trimethyl-1,1a,5,5a-tetrahydro-3-thia-cyclopropa[a]penta-len-4-yl)-propan-1-one] |  |
| 2 | COc1cc(OC[C@@H](O)CO)ccc1CCC(=O)c1sc(C)c2c1C[C@@H]1[C@H]2C1(C)C [Example 49, 3-[4-((S)-2,3-Dihydroxy-propoxy)-2-methoxy-phenyl]-1-((1aS,5aR)-1,1,2-trimethyl-1,1a,5,5a-tetrahydro-3-thia-cyclopropa[a]pentalen-4-yl)-propan-1-one] |  |
| 5 | Cc1cc(CCC(=O)c2sc(C)c3c2C[C@@H]2[C@H]3C2(C)C)cc(Cl)c1OCC(C)O (stereo partly drawn) [Example 74, 3-[3-Chloro-4-(2-hydroxy-propoxy)-5-methyl-phenyl]-1-((1aS,5aR)-1,1,2-trimethyl-1,1a,5,5a-tetrahydro-3-thia-cyclopropa[a]pentalen-4-yl)-propan-1-one] |  |
| 3 | Cc1sc(C(=O)CCc2ccc(OC[C@@H](O)CO)cc2Cl)c2c1[C@H]1[C@@H](C2)C1(C)C [Example 81, 3-[2-Chloro-4-((S)-2,3-dihydroxy-propoxy)-phenyl]-1-((1aS,5aR)-1,1,2-trimethyl-1,1a,5,5a-tetrahydro-3-thia-cyclopropa[a]pentalen-4-yl)-propan-1-one] |  |
| 9 | Cc1cc(C)cc(NCC(=O)c2sc(C)c3c2C[C@@H]2[C@H]3C2(C)C)c1 [Example 157, 2-(3,5-Dimethyl-phenylamino)-1-((1aS,5aR)-1,1,2-trimethyl-1,1a,5,5a-tetrahydro-3-thia-cyclopropa[a]pentalen-4-yl)-ethanone] |  |
| 3 | Cc1sc(C(=O)CNc2ccc(CCO)cc2)c2c1[C@H]1[C@@H](C2)C1(C)C [Example 163, 2-[4-(2-Hydroxy-ethyl)-phenylamino]-1-((1aS,5aR)-1,1,2-trimethyl-1,1a,5,5a-tetrahydro-3-thia-cyclopropa[a]pentalen-4-yl)-ethanone] |  |
